Patent publication US11230526B1, “Cylcoalkenyl derivatives useful as agonists of the GPR120 and/or GPR40 receptors” (Janssen Pharmaceutica NV, priority 2018, dated 2022)

Legend:
Human GPR120 short form = target: T1, Human GPR120 short form (Homo sapiens, UniProt Q5NUL3); experiment: Human GPR120 calcium flux assay, Procedure Calcium B (4200 cells/well); format: cell-based
T1 construct: expressed in transfected cells
T1 sequence (Q5NUL3 1-361): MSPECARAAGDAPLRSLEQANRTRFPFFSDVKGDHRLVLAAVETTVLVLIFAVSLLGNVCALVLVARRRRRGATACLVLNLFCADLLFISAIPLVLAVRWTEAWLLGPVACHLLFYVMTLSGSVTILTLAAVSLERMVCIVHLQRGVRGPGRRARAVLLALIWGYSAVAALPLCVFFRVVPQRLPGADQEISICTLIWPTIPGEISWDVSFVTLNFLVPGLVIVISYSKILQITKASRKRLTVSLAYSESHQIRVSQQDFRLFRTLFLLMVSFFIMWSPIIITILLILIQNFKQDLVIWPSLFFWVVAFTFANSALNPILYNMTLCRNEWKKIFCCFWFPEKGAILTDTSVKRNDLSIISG
Procedure, shortened: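 Agonist EC50 came from a four-parameter fit of RFU (Fmax−Fmin) read over 300 s on FLIPR. Cells were HEK293 stably transfected with human GPR120 (NM_001195755.1) at 4200 per well, serum-starved 1 h and loaded with Fluo-4 NW dye with probenecid before ligand addition.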

human GPR40 = target: T2, human GPR40 (Homo sapiens, UniProt O14842); experiment: GPR40 calcium flux assay, human GPR40; format: cell-based; details: HEK293 cells stably expressing GPR40; table does not say human or rat
T2 construct: expressed in transfected cells
Procedure, shortened: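 Cells preincubated 1 h at 37° C. in HBSS, 20 mM HEPES, 0.1% BSA, then Fluo 8 calcium dye 30 min at 37° C. and 15 min at room temperature.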

T2 sequence (O14842 whole entry): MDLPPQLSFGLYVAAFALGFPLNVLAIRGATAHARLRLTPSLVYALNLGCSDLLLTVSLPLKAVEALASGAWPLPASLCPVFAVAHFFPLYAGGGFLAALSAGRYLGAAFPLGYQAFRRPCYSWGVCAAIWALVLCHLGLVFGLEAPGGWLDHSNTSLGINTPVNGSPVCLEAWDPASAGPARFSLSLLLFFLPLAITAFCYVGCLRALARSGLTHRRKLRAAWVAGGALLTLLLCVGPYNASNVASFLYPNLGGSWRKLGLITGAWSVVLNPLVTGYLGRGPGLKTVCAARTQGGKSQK

| SMILES | EC50 (Human GPR120 short form) [nM] | EC50 (human GPR40) [nM] |
| --- | --- | --- |
| Cc1c(CCC(=O)O)ccc(OCC2=C(c3ccc(Cl)cc3)CCC(C)(C)C2)c1C [Compound 541, 3-[4-[[2-(4-chlorophenyl)-5,5-dimethyl-cyclohexen-1-yl]methoxy]-2,3-dimethyl-phenyl]Propanoic Acid] | 1500 | 4760 |
| Cc1ccc(C2=C(COc3ccc(CCC(=O)O)c(C(F)(F)F)c3)CCC2)c(-c2ccccc2)c1 [Compound 291, 3-[4-[[2-(4-methyl-2-phenyl-phenyl)cyclopenten-1-yl]methoxy]-2-(trifluoromethyl)phenyl]Propanoic Acid] | > 5000 | 1420 |
| CC(C)C1=C(COc2ccc(CCC(=O)O)cc2)CCCC1 [Compound 585, 3-[4-[(2-isopropylcyclohexen-1-yl)methoxy]phenyl]Propanoic Acid] | 1650 | 2420 |
| C#Cc1cc(OCC2=C(C3CCCC3)CCC2)ccc1CCC(=O)O [Compound 454, 3-[4-[(2-cyclopentylcyclopenten-1-yl)methoxy]-2-ethynyl-phenyl]Propanoic Acid] | 2250 | 513 |
| O=C(O)CCc1ccc(OCC2=C(c3ccc(OC(F)(F)F)cc3)CCC2)cc1Cl [Compound 311, 3-[2-chloro-4-[[2-[4-(trifluoromethoxy)phenyl]cyclopenten-1-yl]methoxy]phenyl]Propanoic Acid] | > 5000 | 792 |
| O=C(O)CCc1ccc(OCC2=C(C3CCCC3)CCC2)c(F)c1C(F)(F)F [Compound 435, 3-[4-[(2-cyclopentylcyclopenten-1-yl)methoxy]-3-fluoro-2-(trifluoromethyl)phenyl]Propanoic Acid] | > 5000 | > 10000 |
| CCC1CCCC(COc2ccc(CCC(=O)O)c(C)c2C)=C1c1ccc(Cl)cc1 (stereo not drawn) [Compound 478, 3-[4-[[2-(4-chlorophenyl)-3-ethyl-cyclohexen-1-yl]methoxy]-2,3-dimethyl-phenyl]Propanoic Acid] | > 5000 | > 5000 |
| O=C(O)CCc1ccc(OCC2=C(Cc3ccccc3)CCC2)cc1Cl [Compound 329, 3-[4-[(2-benzylcyclopenten-1-yl)methoxy]-2-chloro-phenyl]Propanoic Acid] | 1600 | 101 |
| Cc1ccccc1C1=C(COc2ccc(CCC(=O)O)c(C(F)(F)F)c2)CCC1 [Compound 257, 3-[4-[[2-(o-tolyl)cyclopenten-1-yl]methoxy]-2-(trifluoromethyl)phenyl]Propanoic Acid] | 2640 | 337 |
| CCc1ccc(C2=C(COc3ccc(CCC(=O)O)c(C(F)(F)F)c3)CCC2)cc1 [Compound 294, 3-[4-[[2-(4-ethylphenyl)cyclopenten-1-yl]methoxy]-2-(trifluoromethyl)phenyl]Propanoic Acid] | > 5000 | 3510 |
| CC1(C)CCC(C2CCCC2)=C(COc2ccc(CCC(=O)O)c(C(F)(F)F)c2)C1 [Compound 604, 3-[4-[(2-cyclopentyl-5,5-dimethyl-cyclohexen-1-yl)methoxy]-2-(trifluoromethyl)phenyl]Propanoic Acid] | 2010 | 1500 |
| Cc1ccc(C2=C(COc3ccc(CCC(=O)O)c(C(F)(F)F)c3)CCC2)cc1-c1ccccc1 [Compound 292, 3-[4-[[2-(4-methyl-3-phenyl-phenyl)cyclopenten-1-yl]methoxy]-2-(trifluoromethyl)phenyl]Propanoic Acid] | > 5000 | 1720 |
| CC(C)CC1=C(COc2ccc(CCC(=O)O)c(C(F)(F)F)c2)CC(F)(F)C1 [Compound 381, 3-[4-[(4,4-difluoro-2-isobutyl-cyclopenten-1-yl)methoxy]-2-(trifluoromethyl)phenyl]Propanoic Acid] | 1650 | 150 |
| O=C(O)CCc1ccc(OCC2=C(CCc3ccccc3)CCC2)cc1C(F)(F)F [Compound 372, 3-[4-[(2-phenethylcyclopenten-1-yl)methoxy]-2-(trifluoromethyl)phenyl]Propanoic Acid] | 2350 | 197 |

Stronger by EC50 (Human GPR120 short form), values ahead:

| EC50 (Human GPR120 short form) [nM] | EC50 (human GPR40) [nM] | SMILES |
| --- | --- | --- |
| 336 | 519 | CC1CCC(c2ccc(Cl)cc2)=C1COc1ccc(CCC(=O)O)c(Cl)c1 (stereo not drawn) [Compound 337, 3-[2-chloro-4-[[2-(4-chlorophenyl)-5-methyl-cyclopenten-1-yl]methoxy]phenyl]Propanoic Acid] |
| 159 | > 10000 | O=C(O)CCc1cc(F)c(OCC2=C(C3CCCC3)CCC2)c(F)c1 [Compound 436] |
| 127 | 170 | O=C(O)CCc1ccc(OCC2=C(C3C=CCC3)CCC2)cc1 (stereo not drawn) [Compound 452, 3-[4-[(2-cyclopent-2-en-1-ylcyclopenten-1-yl)methoxy]phenyl]Propanoic Acid] |
| 752 | 2930 | CCCC#CC1=C(COc2ccc(CCC(=O)O)cc2)CCC1 [Compound 233] |
| 1140 | 99 | CC(C)C1=C(COc2ccc(CCC(=O)O)c(Cl)c2)CCCC1 [Compound 587, 3-[2-chloro-4-[(2-isopropylcyclohexen-1-yl)methoxy]phenyl]Propanoic Acid] |
| 100 | 35 | Cc1cc(OCC2=C(C3CCCC3)CC(F)(F)C2)ccc1CCC(=O)O [Compound 441, 3-[4-[(2-cyclopentyl-4,4-difluoro-cyclopenten-1-yl)methoxy]-2-methyl-phenyl]Propanoic Acid] |
| 951 | 65 | O=C(O)CCc1ccc(OCC2=C(Cc3ccccc3)CC(F)(F)C2)cc1C(F)(F)F [Compound 358, 3-[4-[(2-benzyl-4,4-difluoro-cyclopenten-1-yl)methoxy]-2-(trifluoromethyl)phenyl]Propanoic Acid] |
| 403 | > 5000 | Cc1c(CCC(=O)O)ccc(OCC2=C(C3=CCOCC3)CCC2)c1C [Compound 239, 3-[4-[[2-(3,6-dihydro-2H-pyran-4-yl)cyclopenten-1-yl]methoxy]-2,3-dimethyl-phenyl]Propanoic Acid] |
| 1350 | 98 | O=C(O)CCc1ccc(OCC2=C(C3CCC3)CCCC2)cc1C(F)(F)F [Compound 599, 3-[4-[(2-cyclobutylcyclohexen-1-yl)methoxy]-2-(trifluoromethyl)phenyl]Propanoic Acid] |
| 635 | 46 | O=C(O)CCc1ccc(OCC2=C(C3CCC3)CC(F)(F)C2)cc1C(F)(F)F [Compound 382, 3-[4-[(2-cyclobutyl-4,4-difluoro-cyclopenten-1-yl)methoxy]-2-(trifluoromethyl)phenyl]Propanoic Acid] |
| 1120 | > 5000 | CCOc1ccc(C2=C(COc3ccc(CCC(=O)O)c(C)c3C)CCC2)cn1 [Compound 219, 3-[4-[[2-(6-ethoxy-3-pyridyl)cyclopenten-1-yl]methoxy]-2,3-dimethyl-phenyl]Propanoic Acid] |
| 1430 | 199 | CC(C)CCC1=C(COc2ccc(CCC(=O)O)c(C(F)(F)F)c2)CCC1 [Compound 374, 3-[4-[(2-isopentylcyclopenten-1-yl)methoxy]-2-(trifluoromethyl)phenyl]Propanoic Acid] |
| 233 | 107 | O=C(O)CCc1ccc(OCC2=C(C3CCCC3)CCCCC2)cc1C(F)(F)F [Compound 612, 3-[4-[(2-cyclopentylcyclohepten-1-yl)methoxy]-2-(trifluoromethyl)phenyl]Propanoic Acid] |
